Target: T1, human histamine H3 receptor (Homo sapiens, UniProt Q9Y5N1)
T1 construct: host or cells: cells expressing the human H3 receptor
Test: H3 GTPγS assay (SPA method), histamine H3 in vitro assay
Format: biochemical
Details: GTPγ[35S] binding to membranes of cells expressing human H3; antagonist mode with R-γ-Me-Histamine at EC80 (30 nM); in one embodiment HCl salts tested; read-out: Potency (functional potency as indicated by IC50)
Procedure: H3 GTPγS assay (SPA method) was performed at EuroScreen (Belgium, ES-392-C) using conventional methods. Briefly, cells expressing the human histamine H3 receptor were homogenized in 15 mM Tris-HCl pH 7.5, 2 mM MgCl2, 0.3 mM EDTA, and 1 mM EGTA. Membranes were washed twice in the above tris buffer, collected by centrifugation (40,000×g, 25 min), and re-suspended in 75 mM Tris-HCl pH 7.5, 12.5 mM MgCl2, 0.3 mM EDTA, 1 mM EGTA, and 250 mM sucrose. Membranes were frozen in liquid nitrogen until use. On the day of the assay, membranes were thawed and diluted in assay buffer (20 mM HEPES pH 7.4, 100 mM NaCl, 10 μg/ml saponin, 1 mM MgCl2) to give 500 μg/ml and mixed (v/v) with GDP in assay buffer for a final GDP concentration of 10 μM and incubated on ice for at least 15 min. PVT-WGA beads (Amersham, RPNQ001) were diluted in assay buffer at 50 mg/mL and mixed with GTPγ[^35S] (Amersham, SJ1308) diluted in assay buffer to give ˜25,000 dpm/10 μL and mixed vol/vol just before the start of the reaction. The reaction was started by adding 50 μL of test compound, 20 μL of the membranes:GDP mix, 10 μL of buffer, and 20 μL of the GTPγ[^35S]:beads mix in a 96 well plate Optiplate™ (PerkinElmer, 6005299) covered with topseal (TopCount™, PerkinElmer), mixed with an orbital shaker for 2 min, incubated for 1 hour at room temperature, centrifuged for 10 min at 2000 rpm, incubated for 1 h at room temperature, and counted for 1 min in a TopCount™ reader (PerkinElmer). Dose response curves and IC50 values (concentration to inhibit the reaction by 50%) were calculated by nonlinear regression using XLfit software (IDBS).
For antagonists testing, 10 μL of a reference agonist (R-γ-Me-Histamine) instead of 10 μL buffer was added at a concentration corresponding to the EC80 (30 nM). Control ligands were R-γ-Me-Histamine (Tocris, 0569), Imetit (Sigma, I-135), Thioperamide (Tocris, 0644), and Clobenpropit (Tocris, 0754) diluted in assay buffer.
The compounds provided herein were tested in the histamine H3 in vitro assay. In one embodiment, the respective HCl salts of the compounds provided herein were prepared using standard chemical procedures and tested in the histamine H3 in vitro assay.

T1 sequence (Q9Y5N1 whole entry): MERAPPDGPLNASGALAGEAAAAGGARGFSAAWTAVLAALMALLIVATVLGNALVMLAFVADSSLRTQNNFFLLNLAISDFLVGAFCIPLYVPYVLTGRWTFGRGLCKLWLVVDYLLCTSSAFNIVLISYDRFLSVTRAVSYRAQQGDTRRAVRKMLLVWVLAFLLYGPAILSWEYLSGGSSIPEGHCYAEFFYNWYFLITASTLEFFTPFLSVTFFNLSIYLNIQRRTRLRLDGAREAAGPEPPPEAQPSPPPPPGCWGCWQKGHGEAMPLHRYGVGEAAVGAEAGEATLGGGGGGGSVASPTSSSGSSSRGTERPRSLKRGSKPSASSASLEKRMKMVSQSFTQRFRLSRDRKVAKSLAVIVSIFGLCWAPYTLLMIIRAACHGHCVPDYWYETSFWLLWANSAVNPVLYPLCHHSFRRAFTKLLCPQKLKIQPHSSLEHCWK

Row | IC50 [nM] | Structure (SMILES)
1 | ≤ 100 | c1cnc(N2CCc3cc4nc5n(c4cc3C2)CCN(C2CCC2)CC5)nc1 [Compound 193, 9-cyclobutyl-2-(pyrimidin-2-yl)-2,3,4,7,8,9,10,11-octahydro-1H-[1,4]diazepino[1′,7′:1,2]imidazo[4,5-g]isoquinoline]
2 | ≤ 10 | c1cc2c(cc1-c1ccc3c(c1)nc1n3CCN(C3CCC3)CC1)OCO2 [Compound 210, 8-(benzo[d][1,3]dioxol-5-yl)-3-cyclobutyl-2,3,4,5-tetrahydro-1H-benzo[4,5]imidazo[1,2-d][1,4]diazepine]
3 | ≤ 10 | c1cnc(N2CCCC(c3ccc4c(c3)nc3n4CCN(C4CCC4)CC3)C2)cn1 (stereo not shown) [Compound 129, 3-cyclobutyl-8-(1-(pyrazin-2-yl)piperidin-3-yl)-2,3,4,5-tetrahydro-1H-benzo[4,5]imidazo[1,2-d][1,4]diazepine]
4 | ≤ 10 | c1ccc(N2CCN(c3ccc4c(c3)nc3n4CCN(C4CCC4)CC3)CC2)nc1 [Compound 230, 3-cyclobutyl-8-(4-(pyridin-2-yl)piperazin-1-yl)-2,3,4,5-tetrahydro-1H-benzo[4,5]imidazo[1,2-d][1,4]diazepine]
5 | ≤ 100 | O=C(c1ccc2c(c1)nc1n2CCN(C2CCC2)CC1)N1CCOCC1 [Compound 56]
6 | ≤ 10 | N#Cc1ccc(N2CCN(c3ccc4c(c3)nc3n4CCN(C4CCC4)CC3)CC2)cc1 [Compound 228, 4-(4-(3-cyclobutyl-2,3,4,5-tetrahydro-1H-benzo[4,5]imidazo[1,2-d][1,4]diazepin-8-yl)piperazin-1-yl)benzonitrile]
7 | ≤ 100 | N#Cc1ccc(C(=O)N2CCCC(c3ccc4c(c3)nc3n4CCN(C4CCC4)CC3)C2)cc1 (stereo not shown) [Compound 172, 4-(3-(3-cyclobutyl-2,3,4,5-tetrahydro-1H-benzo[4,5]imidazo[1,2-d][1,4]diazepin-8-yl)piperidine-1-carbonyl)benzonitrile]
8 | ≤ 1000 | CC(=O)Nc1ccc(-c2ccc3c(c2)nc2n3CCN(C3CCN(C)CC3)CC2)cc1 [Compound 9, N-(4-(3-(1-methylpiperidin-4-yl)-2,3,4,5-tetrahydro-1H-[1,4]diazepino[1,7-a]benzimidazol-9-yl)phenyl)acetamide]
9 | ≤ 100 | CN(C)CCc1ccc2c(c1)nc1n2CCN(C2CCC2)CC1 [Compound 139, 2-(3-cyclobutyl-2,3,4,5-tetrahydro-1H-benzo[4,5]imidazo[1,2-d][1,4]diazepin-8-yl)-N,N-dimethylethanamine]
10 | ≤ 100 | CN(Cc1ccc2c(c1)nc1n2CCN(C2CCC2)CC1)C(=O)OCc1ccccc1 [Compound 142, benzyl((3-cyclobutyl-2,3,4,5-tetrahydro-1H-benzo[4,5]imidazo[1,2-d][1,4]diazepin-8-yl)methyl)(methyl)carbamate]
11 | ≤ 10 | FC1CCN(c2ccc3c(c2)nc2n3CCN(C3CCC3)CC2)CC1 [Compound 179, 3-cyclobutyl-8-(4-fluoropiperidin-1-yl)-2,3,4,5-tetrahydro-1H-benzo[4,5]imidazo[1,2-d][1,4]diazepine]
12 | ≤ 100 | O=c1[nH]c2ccccc2n1-c1ccc2c(c1)nc1n2CCN(C2CCC2)CC1 [Compound 72, 1-(3-cyclobutyl-2,3,4,5-tetrahydro-1H-[1,4]diazepino[1,7-a]benzimidazol-9-yl)-1H-benzo[d]imidazol-2(3H)-one]
13 | ≥ 1000 | CN(C)C(=O)c1ccc2nc3n(c2c1)CCN(C1CCC1)CC3 [Compound 85]
14 | ≤ 1000 | COc1ccnc(Oc2ccc3nc4n(c3c2)CCN(C2CCC2)CC4)n1 [Compound 78]
15 | ≤ 100 | c1cc(-c2ccc3c(c2)nc2n3CCN(C3CCC3)CC2)nc(N2CCCC2)c1 [Compound 135, 3-cyclobutyl-8-(6-(pyrrolidin-1-yl)pyridin-2-yl)-2,3,4,5-tetrahydro-1H-benzo[4,5]imidazo[1,2-d][1,4]diazepine]
16 | ≤ 100 | c1cnc(N2Cc3cc4nc5n(c4cc3C2)CCN(C2CCC2)CC5)nc1 [Compound 148, 8-cyclobutyl-2-(pyrimidin-2-yl)-1,2,3,6,7,8,9,10-octahydro-[1,4]diazepino[1′,7′:1,2]imidazo[4,5-f]isoindole]
